Patent US20230085307A1, “PYRIDAZINONE COMPOUND AND HERBICIDE” (NISSAN CHEMICAL CORPORATION, priority 2019, published 2023)

Tested on: oval-leafed pondweed
Assay: Test Example 1: herbicidal activity, application before weed generation under submerged conditions (Table 16, symbol C)
Format: in vivo, oval-leafed pondweed (Monochoria vaginalis)
Conditions: amount of applied herbicide 320 g/ha
Procedure, shortened: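 Submerged Wagner pots (alluvial soil, 4 cm water) sown with weed seeds and planted with 2.5-leaf rice seedlings; emulsifiable concentrate diluted in water applied to water surface on sowing day. Held in greenhouse at 25-30 °C; injury scored 0-5 by herbicidal rate after three weeks.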

Compound | Herbicidal effect, C: oval-leafed pondweed
CCCC(=O)Oc1c(C)nn(C)c(=O)c1-c1c(-c2ccc(SC)cc2)sc2c(F)cccc12 [4-051] | 0 (Herbicidal rate of 5% or less (almost no effect))
Cc1nn(C)c(=O)c(-c2c(-c3ccccc3OC(F)(F)F)sc3c(Cl)cccc23)c1O [4-076] | 0 (Herbicidal rate of 5% or less (almost no effect))

Tested on: Japanese bulrush
Assay: Test Example 2: herbicidal activity, application during weed generation under submerged conditions (Table 17, symbol B)
Format: in vivo, Japanese bulrush (Schoenoplectus juncoides)
Conditions: AAH 320 g/ha; application during weed generation, submerged conditions
Procedure, shortened: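 In this pot test, flooded alluvial soil (water depth 4 cm) holds all three species sown as a mixture. Once seedlings have one to two leaves, the compound's emulsion, thinned with water to the intended dose, is poured on the water; grading follows after three weeks on the earlier criteria.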

Compound | herbicidal effect rating, B: Japanese bulrush
CCCC(=O)Oc1c(C)nn(C)c(=O)c1-c1c(-c2ccc(SC)cc2)sc2c(F)cccc12 [4-051] | 3 (Herbicidal rate of 40% or more and less than 70%)
Cc1nn(C)c(=O)c(-c2c(-c3ccccc3OC(F)(F)F)sc3c(Cl)cccc23)c1O [4-076] | 2 (Herbicidal rate of 20% or more and less than 40%)

Tested on: Chinese sprangletop
Assay: Test Example 3: herbicidal effect by foliage application, Wagner pot (Table 18, symbol D)
Format: in vivo, chinese sprangletop (Leptochloa chinensis)
Conditions: 320 g/ha
Procedure, shortened: (§1)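 Plants were sown in alluvial soil held under 0.1–0.5 cm standing water and grown 14 days in a greenhouse at 25–30 °C. An emulsifiable formulation, water-diluted to the set dose, was then sprayed onto the foliage, and effects were scored three weeks later using previously defined criteria.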

Compound | herbicidal effect on Chinese sprangletop (D)
CCCC(=O)Oc1c(C)nn(C)c(=O)c1-c1c(-c2ccc(SC)cc2)sc2c(F)cccc12 [4-051] | 3 (Herbicidal rate of 40% or more and less than 70%)
Cc1nn(C)c(=O)c(-c2c(-c3ccccc3OC(F)(F)F)sc3c(Cl)cccc23)c1O [4-076] | 3 (Herbicidal rate of 40% or more and less than 70%)

Tested on: rice flat sedge
Assay: Test Example 3: herbicidal effect by foliage application, Wagner pot (Table 18, symbol E)
Format: in vivo, rice flat sedge (Cyperus iria)
Conditions: 320 g/ha
Procedure, shortened: as §1

Compound | herbicidal effect on rice flat sedge (E)
CCCC(=O)Oc1c(C)nn(C)c(=O)c1-c1c(-c2ccc(SC)cc2)sc2c(F)cccc12 [4-051] | 3 (Herbicidal rate of 40% or more and less than 70%)
Cc1nn(C)c(=O)c(-c2c(-c3ccccc3OC(F)(F)F)sc3c(Cl)cccc23)c1O [4-076] | 3 (Herbicidal rate of 40% or more and less than 70%)

Tested on: green foxtail
Assay: Test Example 4: herbicidal effect by soil treatment (Table 19, symbol G)
Format: in vivo, green foxtail (Setaria viridis)
Conditions: amount of applied herbicide 320 g/ha
Procedure, shortened: (§2)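 Herbicidal effect was rated 3 weeks after treatment, using the scoring criteria of an earlier test. The compound, formulated as an emulsion and diluted in water to a set herbicide amount, had been sprayed uniformly on soil over freshly sown seeds. Growth took place in a greenhouse at 25° C. to 30° C.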

Compound | Herbicidal effect by soil treatment, G: green foxtail
CCCC(=O)Oc1c(C)nn(C)c(=O)c1-c1c(-c2ccc(SC)cc2)sc2c(F)cccc12 [4-051] | 1 (Herbicidal rate of 5% or more and less than 20%)
Cc1nn(C)c(=O)c(-c2c(-c3ccccc3OC(F)(F)F)sc3c(Cl)cccc23)c1O [4-076] | 0 (Herbicidal rate of 5% or less (almost no effect))

Tested on: wild oat
Assay: Test Example 4: herbicidal effect by soil treatment (Table 19, symbol I)
Format: in vivo, wild oat (Avena fatua)
Conditions: amount of applied herbicide 320 g/ha
Procedure, shortened: as §2

Compound | Herbicidal effect by soil treatment, I: wild oat
CCCC(=O)Oc1c(C)nn(C)c(=O)c1-c1c(-c2ccc(SC)cc2)sc2c(F)cccc12 [4-051] | 0 (Herbicidal rate of 5% or less (almost no effect))
Cc1nn(C)c(=O)c(-c2c(-c3ccccc3OC(F)(F)F)sc3c(Cl)cccc23)c1O [4-076] | 0 (Herbicidal rate of 5% or less (almost no effect))

Tested on: Italian ryegrass
Assay: Test Example 4: herbicidal effect by soil treatment (Table 19, symbol K)
Format: in vivo, Italian ryegrass (Lolium multiflorum)
Conditions: amount of applied herbicide 320 g/ha
Procedure, shortened: as §2

Compound | Herbicidal effect by soil treatment, K: Italian ryegrass
CCCC(=O)Oc1c(C)nn(C)c(=O)c1-c1c(-c2ccc(SC)cc2)sc2c(F)cccc12 [4-051] | 4 (Herbicidal rate of 70% or more and less than 90%)
Cc1nn(C)c(=O)c(-c2c(-c3ccccc3OC(F)(F)F)sc3c(Cl)cccc23)c1O [4-076] | 0 (Herbicidal rate of 5% or less (almost no effect))

Tested on: windgrass
Assay: Test Example 4: herbicidal effect by soil treatment (Table 19, symbol L)
Format: in vivo, windgrass (Apera spica-venti)
Conditions: amount of applied herbicide 320 g/ha
Procedure, shortened: as §2

Compound | Herbicidal effect by soil treatment, L: windgrass
CCCC(=O)Oc1c(C)nn(C)c(=O)c1-c1c(-c2ccc(SC)cc2)sc2c(F)cccc12 [4-051] | 0 (Herbicidal rate of 5% or less (almost no effect))
Cc1nn(C)c(=O)c(-c2c(-c3ccccc3OC(F)(F)F)sc3c(Cl)cccc23)c1O [4-076] | 0 (Herbicidal rate of 5% or less (almost no effect))

Tested on: velvetleaf
Assay: Test Example 4: herbicidal effect by soil treatment (Table 19, symbol M)
Format: in vivo, velvetleaf (Abutilon theophrasti)
Conditions: amount of applied herbicide 320 g/ha
Procedure, shortened: as §2

Compound | Herbicidal effect by soil treatment, M: velvetleaf
CCCC(=O)Oc1c(C)nn(C)c(=O)c1-c1c(-c2ccc(SC)cc2)sc2c(F)cccc12 [4-051] | 0 (Herbicidal rate of 5% or less (almost no effect))
Cc1nn(C)c(=O)c(-c2c(-c3ccccc3OC(F)(F)F)sc3c(Cl)cccc23)c1O [4-076] | 2 (Herbicidal rate of 20% or more and less than 40%)

Tested on: redroot pigweed
Assay: Test Example 4: herbicidal effect by soil treatment (Table 19, symbol N)
Format: in vivo, redroot pigweed (Amaranthus retroflexus)
Conditions: amount of applied herbicide 320 g/ha
Procedure, shortened: as §2

Compound | Herbicidal effect by soil treatment, N: redroot pigweed
CCCC(=O)Oc1c(C)nn(C)c(=O)c1-c1c(-c2ccc(SC)cc2)sc2c(F)cccc12 [4-051] | 5 (Herbicidal rate of 90% or more (almost completely withered))
Cc1nn(C)c(=O)c(-c2c(-c3ccccc3OC(F)(F)F)sc3c(Cl)cccc23)c1O [4-076] | 4 (Herbicidal rate of 70% or more and less than 90%)

Tested on: lambsquarters
Assay: Test Example 4: herbicidal effect by soil treatment (Table 19, symbol O)
Format: in vivo, lambsquarters (Chenopodium album)
Conditions: amount of applied herbicide 320 g/ha
Procedure, shortened: as §2

Compound | Herbicidal effect by soil treatment, O: lambsquarters
CCCC(=O)Oc1c(C)nn(C)c(=O)c1-c1c(-c2ccc(SC)cc2)sc2c(F)cccc12 [4-051] | 4 (Herbicidal rate of 70% or more and less than 90%)
Cc1nn(C)c(=O)c(-c2c(-c3ccccc3OC(F)(F)F)sc3c(Cl)cccc23)c1O [4-076] | 3 (Herbicidal rate of 40% or more and less than 70%)

Tested on: persian speedwell
Assay: Test Example 4: herbicidal effect by soil treatment (Table 19, symbol R)
Format: in vivo, Persian speedwell (Veronica persica)
Conditions: amount of applied herbicide 320 g/ha
Procedure, shortened: as §2

Compound | Herbicidal effect by soil treatment, R: persian speedwell
CCCC(=O)Oc1c(C)nn(C)c(=O)c1-c1c(-c2ccc(SC)cc2)sc2c(F)cccc12 [4-051] | 5 (Herbicidal rate of 90% or more (almost completely withered))
Cc1nn(C)c(=O)c(-c2c(-c3ccccc3OC(F)(F)F)sc3c(Cl)cccc23)c1O [4-076] | 3 (Herbicidal rate of 40% or more and less than 70%)

Tested on: barnyard grass
Assay: Test Example 5: herbicidal effect by foliage application, plastic box (Table 20, symbol H)
Format: in vivo, barnyard grass (Echinochloa crus-galli)
Conditions: 320 g/ha, foliage application after 14-day growth, evaluated three weeks after application
Procedure, shortened: (§3)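 Foliar spray test: emulsion formulation diluted in water to a set application rate, sprayed onto 14-day-old plants raised in diluvial soil at 25° C to 30° C under glass. Both herbicidal effect and crop effect rated visually three weeks later.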

Compound | herbicidal effect on H: barnyard grass (evaluation grade 0-5)
CCCC(=O)Oc1c(C)nn(C)c(=O)c1-c1c(-c2ccc(SC)cc2)sc2c(F)cccc12 [4-051] | 4 (Herbicidal rate of 70% or more and less than 90%)

Same assay, conditions: amount of applied herbicide 320 g/ha; foliage application after 14-day growth; evaluated three weeks after application

Compound | Herbicidal effect by foliage application, H: barnyard grass
Cc1nn(C)c(=O)c(-c2c(-c3ccccc3OC(F)(F)F)sc3c(Cl)cccc23)c1O [4-076] | 3 (Herbicidal rate of 40% or more and less than 70%)

Tested on: blackgrass
Assay: Test Example 5: herbicidal effect by foliage application, plastic box (Table 20, symbol J)
Format: in vivo, blackgrass (Alopecurus myosuroides)
Conditions: 320 g/ha, foliage application after 14-day growth, evaluated three weeks after application
Procedure, shortened: as §3

Compound | herbicidal effect on J: blackgrass (evaluation grade 0-5)
CCCC(=O)Oc1c(C)nn(C)c(=O)c1-c1c(-c2ccc(SC)cc2)sc2c(F)cccc12 [4-051] | 4 (Herbicidal rate of 70% or more and less than 90%)

Same assay, conditions: amount of applied herbicide 320 g/ha; foliage application after 14-day growth; evaluated three weeks after application

Compound | Herbicidal effect by foliage application, J: blackgrass
Cc1nn(C)c(=O)c(-c2c(-c3ccccc3OC(F)(F)F)sc3c(Cl)cccc23)c1O [4-076] | 0 (Herbicidal rate of 5% or less (almost no effect))

Tested on: Italian ryegrass
Assay: Test Example 5: herbicidal effect by foliage application, plastic box (Table 20, symbol K)
Format: in vivo, Italian ryegrass (Lolium multiflorum)
Conditions: 320 g/ha, foliage application after 14-day growth, evaluated three weeks after application
Procedure, shortened: as §3

Compound | herbicidal effect on K: Italian ryegrass (evaluation grade 0-5)
CCCC(=O)Oc1c(C)nn(C)c(=O)c1-c1c(-c2ccc(SC)cc2)sc2c(F)cccc12 [4-051] | 4 (Herbicidal rate of 70% or more and less than 90%)

Same assay, conditions: amount of applied herbicide 320 g/ha; foliage application after 14-day growth; evaluated three weeks after application

Compound | Herbicidal effect by foliage application, K: Italian ryegrass
Cc1nn(C)c(=O)c(-c2c(-c3ccccc3OC(F)(F)F)sc3c(Cl)cccc23)c1O [4-076] | 0 (Herbicidal rate of 5% or less (almost no effect))

Tested on: velvetleaf
Assay: Test Example 5: herbicidal effect by foliage application, plastic box (Table 20, symbol M)
Format: in vivo, velvetleaf (Abutilon theophrasti)
Conditions: 320 g/ha, foliage application after 14-day growth, evaluated three weeks after application
Procedure, shortened: as §3

Compound | herbicidal effect on M: velvetleaf (evaluation grade 0-5)
CCCC(=O)Oc1c(C)nn(C)c(=O)c1-c1c(-c2ccc(SC)cc2)sc2c(F)cccc12 [4-051] | 5 (Herbicidal rate of 90% or more (almost completely withered))

Same assay, conditions: amount of applied herbicide 320 g/ha; foliage application after 14-day growth; evaluated three weeks after application

Compound | Herbicidal effect by foliage application, M: velvetleaf
Cc1nn(C)c(=O)c(-c2c(-c3ccccc3OC(F)(F)F)sc3c(Cl)cccc23)c1O [4-076] | 4 (Herbicidal rate of 70% or more and less than 90%)

Tested on: chickweed
Assay: Test Example 5: herbicidal effect by foliage application, plastic box (Table 20, symbol P)
Format: in vivo, common chickweed (Stellaria media)
Conditions: 320 g/ha, foliage application after 14-day growth, evaluated three weeks after application
Procedure, shortened: as §3

Compound | herbicidal effect on P: chickweed (evaluation grade 0-5)
CCCC(=O)Oc1c(C)nn(C)c(=O)c1-c1c(-c2ccc(SC)cc2)sc2c(F)cccc12 [4-051] | 5 (Herbicidal rate of 90% or more (almost completely withered))

Same assay, conditions: amount of applied herbicide 320 g/ha; foliage application after 14-day growth; evaluated three weeks after application

Compound | Herbicidal effect by foliage application, P: chickweed
Cc1nn(C)c(=O)c(-c2c(-c3ccccc3OC(F)(F)F)sc3c(Cl)cccc23)c1O [4-076] | 5 (Herbicidal rate of 90% or more (almost completely withered))
